Assay results published in PMC4604124, “In Vitro Characterization of the Pharmacological Properties of the Anti-Cancer Chelator, Bp4eT, and Its Phase I Metabolites” (PLoS ONE, 2015).
“And” between values parts separate entries of the source, which are not always exact repeats. Equal entries are not always repeated.

Columns and labels:
[1] = tested on: LC3-II; experiment: Western blot and densitometry of LC3-I/II (autophagy); format: cell-based, human; details: for LC3-II levels compared to the control: agent alone; for densitometry WB, relative to NT = 1: single blot
Description: Established protocols were used to prepare cell lysates and perform immunoblot analysis. Primary antibodies used include: rabbit LC3 (Cat. #: MBPM036; 1:2,000) from Abacus (Brisbane, Australia) and mouse β-actin (Cat. #: A1978, 1:10,000) from Sigma-Aldrich. The following secondary antibodies were utilized: horseradish peroxidase (HRP)-conjugated anti-rabbit (Cat. #: A6154, […]) and anti-mouse (Cat. #: A4416, 1:10,000) antibodies from Sigma-Aldrich. To ensure equal loading of proteins, membranes were probed for β-actin.

[2] = Ascorbate oxidation assay (redox activity of iron complexes); format: biochemical; details: for %Fe 30min: ascorbate oxidation as % of the Fe control (Fe 100%): IBE 0.1, 30 min;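 for %Fe 30min (ascorbate oxidation, Fe 100%), průměr: IBE 3 means excess free chelator over iron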;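 for %Fe 30min (ascorbate oxidation, Fe 100%): IBE 3 means excess free chelator over iron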;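 for %Fe 30min: ascorbate oxidation as % of the Fe control (Fe 100%): IBE 0.1 means iron-binding equivalents with iron in excess over chelator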;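 for Change of absorbance, odečet 0 (time 0 subtracted), čas 10, průměr: IBE 3 means excess free chelator over 10 µM FeCl3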;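 for Change of absorbance, odečet 0 (time 0 subtracted), čas 10: IBE 3 means excess free chelator over 10 µM FeCl3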
Protocol: The ascorbate oxidation assay was used to assess the redox activity of the iron complexes of the chelators using an established protocol. In brief, 100 μM ascorbic acid was prepared immediately prior to the experiment and incubated either alone or in the presence of 10 μM FeCl3 in a 50-fold molar excess (500 μM) of citrate and the chelators. Chelators were assayed at iron-binding equivalents (IBE) of 0.1 (excess of iron), 1 (fully coordinated iron—chelator complexes) and 3 (excess of free chelator). […] The decrease of absorbance between the two time points was calculated and expressed as a percentage of control without the chelator.

[3] = 72 h/37°C, MCF-7, Bp4eT 10 and 100 nM, Dp44mT 100 nM, Baf A1 100 nM
[4] = Supplementary Fig 2, Baf+ NT (Baf alone)
[5] = Supplementary Fig 2, Baf+, 10nM
[6] = Supplementary Fig 2, Baf+, 5uM (5M [sic] for Bp4eT)
[7] = sheet IBE 1, time 10, replicates
[8] = sheet IBE 1, time 20, replicates
[9] = sheet IBE 1, time 30, replicates

SMILES: CO/C1=C\C(C)=C\[C@@H](C)[C@@H](O)[C@@H](C)C/C(C)=C/C=C/[C@H](OC)[C@@H]([C@@H](C)[C@@H](O)[C@H](C)[C@@]2(O)C[C@@H](O)[C@H](C)[C@@H](C(C)C)O2)OC1=O [Baf A1, Bafilomycin A1, reference compound]
- LC3-II levels compared to the control [1, 3]: marked and significant (p < 0.001) increase

SMILES: CO/C1=C\C(C)=C\[C@@H](C)[C@@H](O)[C@@H](C)C/C(C)=C/C=C/[C@H](OC)[C@@H]([C@@H](C)[C@@H](O)[C@H](C)[C@@]2(O)C[C@@H](O)[C@H](C)[C@@H](C(C)C)O2)OC1=O [Baf]
- densitometry WB, relative to NT = 1, Average ([1]; Fig 7E, Baf alone): 452.435
- densitometry WB, relative to NT = 1 ([1]; Fig 7E, Baf alone): 493.767 and 401.641 and 461.896
- densitometry WB, relative to NT = 1, Average [1, 4]: 120.681
- densitometry WB, relative to NT = 1 [1, 4]: 125.194 and 89.4619 and 147.387

SMILES: CN(C)C(=S)NN=C(c1ccccn1)c1ccccn1 [Dp44mT, di-2-pyridylketone 4,4-dimethyl-3-thiosemicarbazone, reference compound]
- LC3-II with Baf A1 relative to Baf A1 and control ([1]; 24 h/37°C, MCF-7, agent 5 μM, Baf A1 100 nM): significant (p < 0.05) increase
- LC3II expression with Baf A1 relative to Baf A1 and control ([1]; 24 h/37°C, MCF-7, agent 10 and 100 nM, Baf A1 100 nM): did not lead to a significant (p > 0.05) increase
- LC3-II levels upon co-incubation with Baf A1, compared to Baf A1 alone ([1]; 72 h/37°C, MCF-7, Baf A1 100 nM, Bp4eT 10 and 100 nM, Dp44mT 100 nM): significant (p < 0.001–0.05) suppression
- densitometry WB, relative to NT = 1, Average ([1]; Fig 7E, 100nM): 4.573
- densitometry WB, relative to NT = 1, Average ([1]; Supplementary Fig 2, 10nM): 1.013
- densitometry WB, relative to NT = 1, Average ([1]; Supplementary Fig 2, 100nM): 0.7153
- densitometry WB, relative to NT = 1, Average ([1]; Supplementary Fig 2, 5uM (5M [sic] for Bp4eT)): 2.9502
- densitometry WB, relative to NT = 1, Average [1, 5]: 97.312
- densitometry WB, relative to NT = 1 [1, 5]: 76.4364 and 79.3437 and 136.156
- densitometry WB, relative to NT = 1, Average ([1]; Supplementary Fig 2, Baf+, 100nM): 73.568
- densitometry WB, relative to NT = 1, Average [1, 6]: 249.127
- densitometry WB, relative to NT = 1 [1, 6]: 275.571 and 204.438 and 267.371
- LC3-II levels compared to the control [1, 3]: slight, but significant (p < 0.05) increase

SMILES: O=C(O)CN(CCN(CC(=O)O)CC(=O)O)CC(=O)O [EDTA, reference compound]
- Ascorbate oxidation, % of the control ([2]; IBE 0.1): 161%
- %Fe 30min: ascorbate oxidation as % of the Fe control (Fe 100%) ([2]; mean (průměr)): 160.9%
- %Fe 30min: ascorbate oxidation as % of the Fe control (Fe 100%) ([2]; single wells): 159.4% and 155.2% and 146.4% and 180.8% and 176.8% and 168.8%
- Change of absorbance after subtraction of time 0 (odečet 0) ([2]; IBE 0.1, time 10, mean (průměr)): -0.05129
- Change of absorbance after subtraction of time 0 (odečet 0) ([2]; IBE 0.1, time 20, mean (průměr)): -0.1014
- Change of absorbance after subtraction of time 0 (odečet 0) ([2]; IBE 0.1, time 30, mean (průměr)): -0.1524
- Absorbance (ascorbate, λ = 265 nm) ([2]; IBE 0.1, čas 0 (time 0), mean (průměr)): 0.8103
- Absorbance (ascorbate, λ = 265 nm) ([2]; IBE 0.1, čas 0 (time 0), single wells): 0.8054 and 0.8016 and 0.8149 and 0.8186 and 0.808 and 0.8024
- Absorbance (ascorbate, λ = 265 nm) ([2]; IBE 0.1, čas 10 (time 10), mean (průměr)): 0.759
- Absorbance (ascorbate, λ = 265 nm) ([2]; IBE 0.1, čas 10 (time 10), single wells): 0.7602 and 0.7682 and 0.7617 and 0.7478 and 0.7502 and 0.7523
- Absorbance (ascorbate, λ = 265 nm) ([2]; IBE 0.1, čas 20 (time 20), mean (průměr)): 0.7088
- Absorbance (ascorbate, λ = 265 nm) ([2]; IBE 0.1, čas 20 (time 20), single wells): 0.708 and 0.7209 and 0.713 and 0.6947 and 0.6986 and 0.7025
- Absorbance (ascorbate, λ = 265 nm) ([2]; IBE 0.1, čas 30 (time 30), mean (průměr)): 0.6579
- Absorbance (ascorbate, λ = 265 nm) ([2]; IBE 0.1, čas 30 (time 30), single wells): 0.6595 and 0.6673 and 0.6654 and 0.6401 and 0.6465 and 0.65
- Ascorbate oxidation, % of the control ([2]; IBE 1): 417%
- Ascorbate oxidation, % of the control ([2]; IBE 3): 427%
- %Fe 30min (ascorbate oxidation, Fe = 100%), průměr (mean) ([2]; sheet IBE 1, 30min, Fe 100%, mean): 416.7%
- %Fe 30min (ascorbate oxidation, Fe = 100%), single replicates ([2]; sheet IBE 1, 30min, Fe 100%, replicates): 441% and 427.1% and 415.6% and 401.4% and 393.2% and 387.9%
- raw reading at čas 0 (time 0), průměr (mean) ([2]; sheet IBE 1, time 0, mean of 9 readings): 0.6818
- raw reading at čas 0 (time 0), single replicates ([2]; sheet IBE 1, time 0, replicates of 2014-03-24 (two runs) and 2014-03-25): 0.698 and 0.6881 and 0.6774 and 0.6781 and 0.6723 and 0.6948
- odečet 0 (reading minus time 0 reading) at čas 10, průměr (mean) ([2]; sheet IBE 1, time 10, mean): -0.1456
- raw reading at čas 10 (time 10), průměr (mean) ([2]; sheet IBE 1, time 10, mean of 9 readings): 0.5362
- odečet 0 (reading minus time 0 reading) at čas 10, single replicates [2, 7]: -0.1492 and -0.1466 and -0.1396 and -0.1522 and -0.1449 and -0.1427
- raw reading at čas 10 (time 10), single replicates [2, 7]: 0.5282 and 0.5314 and 0.5326 and 0.5426 and 0.5531 and 0.5454
- odečet 0 (reading minus time 0 reading) at čas 20, průměr (mean) ([2]; sheet IBE 1, time 20, mean): -0.2713
- raw reading at čas 20 (time 20), průměr (mean) ([2]; sheet IBE 1, time 20, mean of 9 readings): 0.4105
- odečet 0 (reading minus time 0 reading) at čas 20, single replicates [2, 8]: -0.2803 and -0.2685 and -0.2607 and -0.2802 and -0.2739 and -0.2684
- raw reading at čas 20 (time 20), single replicates [2, 8]: 0.3971 and 0.4095 and 0.4115 and 0.4146 and 0.424 and 0.4197
- odečet 0 (reading minus time 0 reading) at čas 30, průměr (mean) ([2]; sheet IBE 1, time 30, mean): -0.3705
- raw reading at čas 30 (time 30), průměr (mean) ([2]; sheet IBE 1, time 30, mean of 9 readings): 0.3114
- odečet 0 (reading minus time 0 reading) at čas 30, single replicates [2, 9]: -0.381 and -0.369 and -0.359 and -0.3788 and -0.3711 and -0.366
- raw reading at čas 30 (time 30), single replicates [2, 9]: 0.2963 and 0.3091 and 0.3132 and 0.316 and 0.3269 and 0.322
- %Fe 30min (ascorbate oxidation, Fe 100%), průměr ([2]; sheet IBE 3, 30min, Fe alone = 100%, mean (průměr) of the 9 replicates): 426.7%
- %Fe 30min (ascorbate oxidation, Fe 100%) ([2]; sheet IBE 3, 30min, Fe alone = 100%, single replicates): 442% and 427.3% and 421.9% and 434.5% and 414.3% and 409.1%
- Change of absorbance, odečet 0 (time 0 subtracted), čas 10, průměr ([2]; sheet IBE 3, time 10 minus time 0, mean (průměr)): -0.1585
- Change of absorbance, odečet 0 (time 0 subtracted), čas 10 ([2]; sheet IBE 3, time 10 minus time 0, single replicates): -0.1642 and -0.1578 and -0.1558 and -0.1617 and -0.1557 and -0.1533
- Change of absorbance, odečet 0 (time 0 subtracted), čas 20, průměr ([2]; sheet IBE 3, time 20 minus time 0, mean (průměr)): -0.2896
- Change of absorbance, odečet 0 (time 0 subtracted), čas 20 ([2]; sheet IBE 3, time 20 minus time 0, single replicates): -0.3027 and -0.2894 and -0.2865 and -0.2919 and -0.2818 and -0.2751
- Change of absorbance, odečet 0 (time 0 subtracted), čas 30, průměr ([2]; sheet IBE 3, time 30 minus time 0, mean (průměr)): -0.3943
- Change of absorbance, odečet 0 (time 0 subtracted), čas 30 ([2]; sheet IBE 3, time 30 minus time 0, single replicates): -0.4103 and -0.3966 and -0.3916 and -0.3977 and -0.3792 and -0.3744
